In ChEMBL document CHEMBL3045926, “Exacerbative role of vitamn A on radiation damage in vivo” (2008):

Tests used:
Format in all cases: functional
Cavia porcellus [1] = assay: Antioxidant activity against gamma irradiation-induced ROS production in Cavia porcellus (guinea pig) liver assessed as thiobarbituric acid reactive substance level per g tissue at 50 U/Kg, ip administered 2 days prior to irradiation-challenge measured after 30 min by spectroscopic analysis (reference value: 168.75 +/- 12.54 nmol per g tissue)
Cavia porcellus [2] = assay: (§1) Antioxidant activity against gamma irradiation-induced ROS production in Cavia porcellus (guinea pig) liver assessed as glutathione peroxidase level per mg protein at 50 U/Kg, ip administered 2 days prior to irradiation-challenge measured after 30 min by spectroscopic analysis (reference value: 0.76 +/- 0.06 U per mg protein)
Cavia porcellus [3] = assay: as §1, with “superoxide dismutase” for “glutathione peroxidase”, “8.72” for “0.76”, “1.94” for “0.06”
Cavia porcellus [4] = assay: Antioxidant activity against gamma irradiation-induced ROS production in Cavia porcellus (guinea pig) liver assessed as nitric oxide level at 50 U/Kg, ip administered 2 days prior to irradiation-challenge measured after 30 min by ESR spectroscopic analysis (reference value: 0.3 +/- 0.08 a.u)

Structure (SMILES): CC1=C(/C=C/C(C)=C/C=C/C(C)=C/CO)C(C)(C)CCC1 [RETINOL]
- Activity (Cavia porcellus [1]): 197 nmol/g
- Activity (Cavia porcellus [2]): 0.39 U/mg
- Activity (Cavia porcellus [3]): 6.66 U/mg
- Activity (Cavia porcellus [4]): 1.04 a.u.
